# From patent EP0133934A2, “Pharmacologically active 1,3,4-thiadiazol-(3,2-a)-thieno-(2,3-d)-pyrimidin-5-(H)one derivatives” (NIKEPHARMA S.r.l., priority 1983, dated 1985)
# Where two headings read alike, the source gives them in different places.
# Tests used:
# gastric ulceration = type: in vivo, rat; settings: os; for ULCERA-TION DEGREE: scale 0 to 4
# Protocol: To rats fasted for 18 hours, with water ad libitum, were administered the compounds under test at "0" time and after 2 hours. Control rats were treated with established anti-inflammatory agents.
# 6 Hours after the beginning of the test, the animals were killed by ether inhalation.
# Gastric ulceration was assessed on the ground of values ranging from 0 to 4: • 0 = no ulceration; • 1 = slight iperhaemia and/or a few ulcers; • 2 = severe iperhaemia and many punctiform ulcers; • 3 = severe submucosal hemorrage, one large ulcer and many punctiform ulcers; • 4 severe submucosal hemorrage and many large ulcers.
# The ulcerogenic index was measured by the following formula (Lwoff. J.M., J. Pharmacol., 2, 81, 1971): [formula]
# [1] = tested on: Writhing test induced by phenyl-benzoquinone; assay: Phenylbenzoquinone writhing test in the rat; type: in vivo
# Protocol: (§1) The activity tests were carried out on male Spra gue-Dawley rats weighing 200+20 g and on male Swiss mice weighing 26+3 g.
# (§2) The test compounds were administered orally by means of gastroesophageal tube, in the form of a suspen sion in a 10 ml/kg mucilage of 5% gum arabic; and intraperitoneally in the form of an aqueous suspen sion added with a few drops of Tween 80, in the con stant volume of 10 ml/kg.
# acetic acid peritonitis = assay: Anti-exudative activity: acetic acid peritonitis in the rat; type: in vivo; settings: for PERITONEAL EXUDATE ml ± E.S.: controls 2.91 ± 0.12; for anti-exudative activity: oral dose of 10 mg/kg, result in words; for EXUDATE VOLUME ml ± E.S.: controls 2.58 ± 0.18
# Protocol: The test was carried out according to the procedure described by Arrigoni-Martelli (Boll.Chim. Far. 107, 29, 1968). This method is based upon the evaluation of the anti-exudative effect of a drug at the peritoneal level, following a intraperitoneal injection of 10 ml/kg of a 0.5% acetic acid solution.
# The compounds under test were administered oral ly one hour before the inflammatory agent; 30 minutes after the treatment the animals were killed and the fluid from the peritoneal cavity was drawn and measured.
# The test compounds were administered by oral route 1 hour before intraperitoneal injection of acetic acid (10 ml/kg of a 0.5% solution).
# The anti-exudative activity was determined on the basis of the peritoneal exudate of the treated animals, in comparison with the controls.
# carrageenin oedema = assay: Antiinflammatory activity: carrageenin oedema in the rat; type: in vivo; settings: po, 4 h, read-out: OEDEMA INHIBITION % at the fourth hour
# Protocol: as §1, §2
# The compounds under test and the control ones were administered orally one hour before the injection of 0.1 ml of 1% carrageenin in the right paw of the animals.
# The volume of the paw was measured by means of a plethysmograph immediately before the injection and 2, 4 and 6 hours after.
# The results were expressed as percentage inhibi tion of the oedema in the treated animals in comparison with the control animals, at the time of the maximum oedema development (fourth hour after the carrageenin injection).
# [2] = tested on: phenylbenzoquinone writhing test; assay: Phenylbenzoquinone writhing test in the mouse (ED50 and duration of effect); type: in vivo; settings: for % INHI-BITION / N° OF WRITHES IN 10' ml ± E.S.: Table 6, oral, one hour before the test; for N° OF WRITHES IN 10' ml ± E.S.: controls 52.4 ± 1.69; for % INHIBITION / Nº OF WRITHES IN 10' ml ± E.S.: Table 7, oral 1 mg/kg; for Nº OF WRITHES IN 10' ml ± E.S.: controls 53.2 ± 1.26
# Protocol: The analgesic effect was determined by the number of writhes of the abdomen recorded during 10 minutes (from 5 to 15 minutes after the phenylbenzo quinone injection).
# Carrageenin pleuritis = Carrageenin pleuritis in the rat; type: in vivo; settings: for EXUDATE VOLUME: 30 min. before carrageenin and 6 hours after, exudate at 18 hours, controls 2.76 ± 0.38
# Protocol: Compound HA-34 was tested for the protective activity against the exudative pleuritis reaction induced by carrageenin. HA-34 was administered 30 min. before the injection of carrageenin, and 6 hours after it. The experiment was carried out on male Spra- gue-Dawley rats, anestethized with ethyl urethane, which were subjected, in their right pleural cavity, to injection of 1.5 ml of air and then 0.1 ml of a 1% carrageenin solution, in sterile normal saline, according to the procedure by Van Armann et al. (J. Pharmac. Exp. Ther., 150, 328, 1965). Indometha cin and Piroxicam were employed as the control drugs, under the same conditions. 18 Hours after the intrapleuric carrageenin injec tion, the animals were killed by means of ether inhalation, and the pleuric exudate was collected and measured.
# [3] = Rattus norvegicus, po, 10 min, os, read-out: % INHIBI-TION
# [4] = Rattus norvegicus, po, Table 4, os, 10 mg/kg
# [5] = os, 100 mg/kg, one hour before carrageenin
# [6] = 400 mg/kg, at 0 time and after 2 hours, killed at 6 hours
# [7] = 30 min. before phenylbenzoquinone
compound,measurement,setting,value
"CC(=O)Oc1ccccc1C(=O)O [ASA, Acetylsali cylic acid]",% ANIMALS WITH ULCERS,gastric ulceration; 200 mg/kg,78%
same,ULCERA-TION INDEX,gastric ulceration; 200 mg/kg,112
same,ULCERA-TION DEGREE,gastric ulceration; 200 mg/kg,1.5
same,inhibition in vivo at 50 mg/kg,"[1]; Rattus norvegicus, po, 10 min, read-out: % INHIBI-TION",40%
same,PERITONEAL EXUDATE ml ± E.S.,"acetic acid peritonitis; Table 4, os, 20 mg/kg",2.76 ± 0.13 mL
same,anti-exudative activity,acetic acid peritonitis,did not display valuable anti-exudat- ing properties
same,inhibition in vivo at 100 mg/kg,carrageenin oedema,31.4 ± 0.37%
Cc1nn2c(=O)c3c4c(sc3nc2s1)CCC4 [HA 30],inhibition in vivo at 0.5 mg/kg,[1]; [3],15%
same,inhibition in vivo at 5 mg/kg,[1]; [3],36%
same,analgesic action,"[1]; oral doses of 5 and 0.5 mg/kg, result in words",substan tially comparable to the reference compound
same,inhibition in vivo at 10 mg/kg,acetic acid peritonitis; [4],14%
same,PERITONEAL EXUDATE ml ± E.S.,"acetic acid peritonitis; Table 4, os, 10 mg/kg",2.50 ± 0.10 mL
same,anti-exudative activity,acetic acid peritonitis,did not display valuable anti-exudat- ing properties
same,inhibition in vivo at 100 mg/kg,carrageenin oedema; [5],35.6 ± 0.74%
CCc1nn2c(=O)c3c4c(sc3nc2s1)CCCC4 [HA 32],ULCERA-TION INDEX,gastric ulceration; 400 mg/kg,0
same,% ANIMALS WITH ULCERS,gastric ulceration; [6],0%
same,ULCERA-TION DEGREE,gastric ulceration; 400 mg/kg,0
same,inhibition in vivo at 0.5 mg/kg,[1]; [3],48%
same,inhibition in vivo at 5 mg/kg,[1]; [3],76%
same,inhibition in vivo at 10 mg/kg,acetic acid peritonitis; [4],74%
same,PERITONEAL EXUDATE ml ± E.S.,"acetic acid peritonitis; Table 4, os, 10 mg/kg",0.93 ± 0.14 mL
same,inhibition in vivo at 100 mg/kg,carrageenin oedema; [5],49.6 ± 0.82%
O=c1c2c3c(sc2nc2sc(-c4ccccc4)nn12)CCCC3 [HA 33],ULCERA-TION INDEX,gastric ulceration; 400 mg/kg,0
same,% ANIMALS WITH ULCERS,gastric ulceration; [6],0%
same,ULCERA-TION DEGREE,gastric ulceration; 400 mg/kg,0
same,inhibition in vivo at 0.5 mg/kg,[1]; [3],27%
same,inhibition in vivo at 5 mg/kg,[1]; [3],70%
same,inhibition in vivo at 10 mg/kg,acetic acid peritonitis; [4],68%
same,PERITONEAL EXUDATE ml ± E.S.,"acetic acid peritonitis; Table 4, os, 10 mg/kg",1.04 ± 0.16 mL
same,inhibition in vivo at 100 mg/kg,carrageenin oedema; [5],39.6 ± 0.76%
CCOc1ccccc1-c1nn2c(=O)c3c4c(sc3nc2s1)CCCC4 [HA 36],ULCERA-TION INDEX,gastric ulceration; 400 mg/kg,0
same,% ANIMALS WITH ULCERS,gastric ulceration; [6],0%
same,ULCERA-TION DEGREE,gastric ulceration; 400 mg/kg,0
same,inhibition in vivo at 0.5 mg/kg,[1]; [3],22%
same,inhibition in vivo at 5 mg/kg,[1]; [3],60%
same,inhibition in vivo at 10 mg/kg,acetic acid peritonitis; [4],49%
same,PERITONEAL EXUDATE ml ± E.S.,"acetic acid peritonitis; Table 4, os, 10 mg/kg",1.48 ± 0.10 mL
same,inhibition in vivo at 100 mg/kg,carrageenin oedema; [5],52.7 ± 0.61%
"Cc1cccc(Nc2ccccc2C(=O)O)c1C [MFA, mephenamic acid]",% ANIMALS WITH ULCERS,gastric ulceration; 200 mg/kg,50%
same,ULCERA-TION INDEX,gastric ulceration; 200 mg/kg,50
same,ULCERA-TION DEGREE,gastric ulceration; 200 mg/kg,1.0
same,inhibition in vivo at 5 mg/kg,[1]; [3],24%
same,inhibition in vivo at 10 mg/kg,"[1]; Rattus norvegicus, po, 10 min, os, 10 mg/kg, read-out: % INHIBI-TION",33%
same,inhibition in vivo at 10 mg/kg,acetic acid peritonitis; [4],6%
same,PERITONEAL EXUDATE ml ± E.S.,"acetic acid peritonitis; Table 4, os, 10 mg/kg",2.60 ± 0.15 mL
same,anti-exudative activity,acetic acid peritonitis,did not display valuable anti-exudat- ing properties
same,inhibition in vivo at 100 mg/kg,carrageenin oedema; [5],49.2 ± 0.86%
"CN1C(C(=O)Nc2ccccn2)=C(O)c2ccccc2S1(=O)=O [PIROXICAM, Piroxicam]",ED50,"[2]; Mus musculus, 1 h, oral administration one hour before the test, read-out: ED50",1.2 mg/kg
same,% INHI-BITION,[2]; 0.1 mg/kg,11.8%
same,% INHI-BITION,[2]; 0.5 mg/kg,28.4%
same,N° OF WRITHES IN 10' ml ± E.S.,[2]; 0.5 mg/kg,37.5 ± 1.26
same,% INHI-BITION,[2]; 1 mg/kg,54.8%
same,N° OF WRITHES IN 10' ml ± E.S.,[2]; 1 mg/kg,23.7 ± 2.18
same,% INHI-BITION,[2]; 2 mg/kg,61.8%
same,% INHI-BITION,[2]; 5 mg/kg,82.2%
same,N° OF WRITHES IN 10' ml ± E.S.,[2]; 5 mg/kg,9.3 ± 1.44
same,% INHIBITION,[2]; [7],54.5%
same,Nº OF WRITHES IN 10' ml ± E.S.,[2]; [7],24.2 ± 1.62
same,% INHIBITION,[2]; 1 h before phenylbenzoquinone,57.3%
same,Nº OF WRITHES IN 10' ml ± E.S.,[2]; 1 h before phenylbenzoquinone,22.7 ± 2.18
same,% INHIBITION,[2]; 3 h before phenylbenzoquinone,67.6%
same,% INHIBITION,[2]; 4 h before phenylbenzoquinone,63.3%
same,% INHIBITION,[2]; 6 h before phenylbenzoquinone,65.0%
same,% INHIBITION,[2]; 8 h before phenylbenzoquinone,60.1%
same,Nº OF WRITHES IN 10' ml ± E.S.,[2]; 8 h before phenylbenzoquinone,21.2 ± 0.72
same,% INHIBITION,[2]; 24 h before phenylbenzoquinone,57.5%
same,Nº OF WRITHES IN 10' ml ± E.S.,[2]; 24 h before phenylbenzoquinone,22.6 ± 1.37
same,% INHIBITION,[2]; 32 h before phenylbenzoquinone,12.0%
same,inhibition in vivo at 0.1 mg/kg,"acetic acid peritonitis; Rattus norvegicus, po, Table 8, oral, 0.1 mg/kg",24.6%
same,inhibition in vivo at 1 mg/kg,"acetic acid peritonitis; Rattus norvegicus, po, Table 8, oral, 1 mg/kg",51.2%
same,inhibition in vivo at 10 mg/kg,"acetic acid peritonitis; Rattus norvegicus, po, Table 8, oral, 10 mg/kg",80%
same,inhibition in vivo at 20 mg/kg,"acetic acid peritonitis; Rattus norvegicus, po, Table 8, oral, 20 mg/kg",95.2%
same,ED50,"acetic acid peritonitis; Rattus norvegicus, oral administration 1 hour before i.p. acetic acid",0.7 mg/kg
same,EXUDATE VOLUME ml ± E.S.,"acetic acid peritonitis; Table 8, oral, 0.1 mg/kg, 1 hour before acetic acid",1.94 ± 0.08 mL
same,EXUDATE VOLUME ml ± E.S.,"acetic acid peritonitis; Table 8, oral, 0.5 mg/kg",1.37 ± 0.07 mL
same,EXUDATE VOLUME ml ± E.S.,"acetic acid peritonitis; Table 8, oral, 1 mg/kg",1.26 ± 0.06 mL
same,EXUDATE VOLUME ml ± E.S.,"acetic acid peritonitis; Table 8, oral, 10 mg/kg",0.49 ± 0.04 mL
same,EXUDATE VOLUME ml ± E.S.,"acetic acid peritonitis; Table 8, oral, 20 mg/kg",0.12 ± 0.06 mL
same,% INHIBITION,Carrageenin pleuritis; 5 mg/kg,39.5%
same,EXUDATE VOLUME,Carrageenin pleuritis; 5 mg/kg,1.67 ± 0.33
same,% INHIBITION,Carrageenin pleuritis; 10 mg/kg,64.1%
same,EXUDATE VOLUME,Carrageenin pleuritis; 10 mg/kg,0.99 ± 0.40
